Assay results as given in ChEMBL document CHEMBL1122712, “[(E)-1-[123I]Iodo-1-penten-5-yl]triphenylphosphonium iodide: convenient preparation of a potentially useful myocardial perfusion agent” (J Med Chem, 1984).
Several values for one entry are separate records, joined by “and”; a condition that tells them apart may be missing. Identical values can stand only once.

How the values were obtained:
Assay type in all cases: ADME, organism-based
[1] = test system: Rattus norvegicus; assay: Distribution of radioactivity in the female heart rat tissues after intravenous administration after 3 days was determined; conditions: in vivo, 72 h
[2] = test system: Rattus norvegicus; assay: Distribution of radioactivity in the female liver rat tissues after intravenous administration after 30 min was determined; conditions: in vivo, 0.5 h
[3] = test system: Rattus norvegicus; assay: Distribution of radioactivity in the female rat blood tissues after intravenous administration after 1 day was determined; conditions: in vivo, 24 h
[4] = test system: Rattus norvegicus; assay: Distribution of radioactivity in the female rat blood tissues after intravenous administration after 30 min was determined; conditions: in vivo, 0.5 h
[5] = test system: Rattus norvegicus; assay: Distribution of radioactivity in the female rat blood tissues after intravenous administration after 3 days was determined; conditions: in vivo, 72 h
[6] = test system: Rattus norvegicus; assay: Distribution of radioactivity in the female rat blood tissues after intravenous administration after 3h was determined; conditions: in vivo
[7] = test system: Rattus norvegicus; assay: Distribution of radioactivity in the female rat blood tissues after intravenous administration after 5 min was determined; conditions: in vivo
[8] = test system: Rattus norvegicus; assay: Distribution of radioactivity in the female rat liver tissues after intravenous administration after 30 min was determined; conditions: in vivo, 0.5 h
[9] = test system: Rattus norvegicus; assay: Distribution of radioactivity in the female rat liver tissues after intravenous administration after 3 days was determined; conditions: in vivo, 72 h
[10] = test system: Rattus norvegicus; assay: Distribution of radioactivity in the female rat liver tissues after intravenous administration after 3h was determined; conditions: in vivo
[11] = test system: Rattus norvegicus; assay: Distribution of radioactivity in the female rat liver tissues after intravenous administration after 60 min was determined; conditions: in vivo, 1 h
[12] = test system: Rattus norvegicus; assay: Distribution of radioactivity in the female rat lung tissues after intravenous administration after 1 day was determined; conditions: in vivo, 24 h
[13] = test system: Rattus norvegicus; assay: Distribution of radioactivity in the female rat lung tissues after intravenous administration after 30 min was determined; conditions: in vivo, 0.5 h
[14] = test system: Rattus norvegicus; assay: Distribution of radioactivity in the female rat lung tissues after intravenous administration after 3 days was determined; conditions: in vivo, 72 h
[15] = test system: Rattus norvegicus; assay: Distribution of radioactivity in the female rat lung tissues after intravenous administration after 3h was determined; conditions: in vivo
[16] = test system: Rattus norvegicus; assay: Distribution of radioactivity in the female rat lung tissues after intravenous administration after 60 min was determined; conditions: in vivo, 1 h
[17] = test system: Rattus norvegicus; assay: Distribution of radioactivity in the female rat kidney tissues after intravenous administration after 30 min was determined; conditions: in vivo, 0.5 h
[18] = test system: Rattus norvegicus; assay: Distribution of radioactivity in the female rat kidney tissues after intravenous administration after 3 days was determined; conditions: in vivo, 72 h
[19] = test system: Rattus norvegicus; assay: Distribution of radioactivity in the female rat kidney tissues after intravenous administration after 3h was determined; conditions: in vivo
[20] = test system: Rattus norvegicus; assay: Distribution of radioactivity in the female rat kidney tissues after intravenous administration after 5 min was determined; conditions: in vivo
[21] = test system: Rattus norvegicus; assay: Distribution of radioactivity in the female rat kidney tissues after intravenous administration after 60 min was determined; conditions: in vivo, 1 h
[22] = test system: Rattus norvegicus; assay: Distribution of radioactivity in the female rat liver tissues after intravenous administration after 1 day was determined; conditions: in vivo, 24 h
[23] = test system: Rattus norvegicus; assay: Distribution of radioactivity in the female rat blood tissues after intravenous administration after 60 min was determined; conditions: in vivo, 1 h
[24] = test system: Rattus norvegicus; assay: Distribution of radioactivity in the female rat heart tissues after intravenous administration after 1 day was determined; conditions: in vivo, 24 h
[25] = test system: Rattus norvegicus; assay: Distribution of radioactivity in the female rat heart tissues after intravenous administration after 30 min was determined; conditions: in vivo, 0.5 h
[26] = test system: Rattus norvegicus; assay: Distribution of radioactivity in the female rat heart tissues after intravenous administration after 3 days was determined; conditions: in vivo, 72 h
[27] = test system: Rattus norvegicus; assay: Distribution of radioactivity in the female rat heart tissues after intravenous administration after 3h was determined; conditions: in vivo
[28] = test system: Rattus norvegicus; assay: Distribution of radioactivity in the female rat heart tissues after intravenous administration after 5 min was determined; conditions: in vivo
[29] = test system: Rattus norvegicus; assay: Distribution of radioactivity in the female rat heart tissues after intravenous administration after 60 min was determined; conditions: in vivo, 1 h
[30] = test system: Rattus norvegicus; assay: Distribution of radioactivity in the female rat kidney tissues after intravenous administration after 1 day was determined; conditions: in vivo, 24 h
[31] = test system: Rattus norvegicus; assay: Distribution of radioactivity in the female rat lung tissues after intravenous administration after 5 min was determined; conditions: in vivo

- Activity [1]: 0.64%
- Activity [2]: 5.59%
- Activity [3]: 0.2% and 0.01%
- Activity [4]: 1.59% and 0.15%
- Activity [5]: 0.093% and 0.009%
- Activity [6]: 0.96% and 0.08%
- Activity [7]: 1.58% and 0.14%
- Activity [8]: 0.75%
- Activity [9]: 0.13% and 0.019%
- Activity [10]: 0.74% and 0.09%
- Activity [11]: 2.64% and 0.25%
- Activity [12]: 0.19% and 0.17%
- Activity [13]: 0.79% and 0.64%
- Activity [14]: 0.102% and 0.91%
- Activity [15]: 0.61% and 0.49%
- Activity [16]: 0.75% and 0.65%
- Activity [17]: 13.11% and 8.91%
- Activity [18]: 0.22% and 0.15%
- Activity [19]: 4.38% and 2.75%
- Activity [20]: 13.72% and 7.08%
- Activity [21]: 7.95% and 5.06%
- Activity [22]: 0.18% and 0.02%
- Activity [23]: 1.14% and 0.11%
- Activity [24]: 1.18% and 1.58%
- Activity [25]: 1.6% and 2.31%
- Activity [26]: 1%
- Activity [27]: 1.54% and 2.21%
- Activity [28]: 1.49% and 2.38%
- Activity [29]: 1.83% and 2.59%
- Activity [30]: 0.79% and 0.46%
- Activity [31]: 0.89% and 0.75%
Compound: I/C=C/CCC[P+](c1ccccc1)(c1ccccc1)c1ccccc1.[I-]
